Reference: patent US9492471B2, “Methods of treating a disease or disorder associated with Bruton'S Tyrosine Kinase” (Celgene Avilomics Research, Inc., priority 2013, dated 2016)
Where two headings read alike, the source gives them in different places.

Legend:
Assay in all cases: HotSpot kinase profiling
Type in all cases: biochemical
JNK2 = molecular target: T1, JNK2 (Homo sapiens, UniProt P45984)
T1 construct: purchased Reaction Biology Corp
Procedure, shortened: (§1)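 Radiometric kinase assay with P81 filter capture; each kinase was added to fresh substrate plus cofactors in reaction buffer and incubated 2 h at room temperature. Unreacted phosphate was washed off with 0.1% phosphoric acid before detection; percent inhibition is relative to DMSO control, averaged over replicates.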

CDK6/cyclin D3 = molecular target: T2, CDK6/cyclin D3 (Homo sapiens, UniProt Q00534)
T2 construct: purchased Reaction Biology Corp
T2 sequence (Q00534 whole entry): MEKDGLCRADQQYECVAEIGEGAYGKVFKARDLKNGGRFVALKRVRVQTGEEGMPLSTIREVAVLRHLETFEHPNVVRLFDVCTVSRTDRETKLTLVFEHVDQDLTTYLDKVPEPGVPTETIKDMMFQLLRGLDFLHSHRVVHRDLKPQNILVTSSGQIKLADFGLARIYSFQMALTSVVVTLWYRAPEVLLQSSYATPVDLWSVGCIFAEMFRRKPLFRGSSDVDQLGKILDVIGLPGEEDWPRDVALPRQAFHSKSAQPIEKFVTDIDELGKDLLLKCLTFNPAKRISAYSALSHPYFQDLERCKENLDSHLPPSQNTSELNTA
T2 sequence (P30281 whole entry partner): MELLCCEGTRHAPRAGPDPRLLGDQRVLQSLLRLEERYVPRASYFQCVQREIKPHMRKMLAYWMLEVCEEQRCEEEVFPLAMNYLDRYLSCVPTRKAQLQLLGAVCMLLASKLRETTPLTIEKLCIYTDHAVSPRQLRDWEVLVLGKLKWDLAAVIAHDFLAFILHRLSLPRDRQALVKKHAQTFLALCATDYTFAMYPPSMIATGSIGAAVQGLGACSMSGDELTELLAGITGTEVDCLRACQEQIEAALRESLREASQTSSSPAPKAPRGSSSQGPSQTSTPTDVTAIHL
Procedure, shortened: as §1

Aurora A = molecular target: T3, Aurora A (Homo sapiens, UniProt O14965)
T3 construct: purchased Reaction Biology Corp
T3 sequence (O14965 1-403): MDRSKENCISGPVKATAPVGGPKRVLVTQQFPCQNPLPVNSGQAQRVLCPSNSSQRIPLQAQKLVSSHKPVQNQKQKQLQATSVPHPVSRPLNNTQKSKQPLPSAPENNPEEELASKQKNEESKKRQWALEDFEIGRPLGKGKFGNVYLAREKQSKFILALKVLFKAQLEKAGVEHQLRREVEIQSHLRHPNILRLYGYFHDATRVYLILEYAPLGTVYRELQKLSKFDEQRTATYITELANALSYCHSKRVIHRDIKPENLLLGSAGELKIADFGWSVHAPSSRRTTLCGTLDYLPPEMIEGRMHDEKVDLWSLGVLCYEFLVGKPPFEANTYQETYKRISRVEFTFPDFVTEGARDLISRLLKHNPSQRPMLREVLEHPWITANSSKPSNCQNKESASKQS
Procedure, shortened: as §1

c-MER = molecular target: T4, c-MER (Homo sapiens, UniProt Q12866)
T4 construct: purchased Reaction Biology Corp
T4 sequence (Q12866 21-999): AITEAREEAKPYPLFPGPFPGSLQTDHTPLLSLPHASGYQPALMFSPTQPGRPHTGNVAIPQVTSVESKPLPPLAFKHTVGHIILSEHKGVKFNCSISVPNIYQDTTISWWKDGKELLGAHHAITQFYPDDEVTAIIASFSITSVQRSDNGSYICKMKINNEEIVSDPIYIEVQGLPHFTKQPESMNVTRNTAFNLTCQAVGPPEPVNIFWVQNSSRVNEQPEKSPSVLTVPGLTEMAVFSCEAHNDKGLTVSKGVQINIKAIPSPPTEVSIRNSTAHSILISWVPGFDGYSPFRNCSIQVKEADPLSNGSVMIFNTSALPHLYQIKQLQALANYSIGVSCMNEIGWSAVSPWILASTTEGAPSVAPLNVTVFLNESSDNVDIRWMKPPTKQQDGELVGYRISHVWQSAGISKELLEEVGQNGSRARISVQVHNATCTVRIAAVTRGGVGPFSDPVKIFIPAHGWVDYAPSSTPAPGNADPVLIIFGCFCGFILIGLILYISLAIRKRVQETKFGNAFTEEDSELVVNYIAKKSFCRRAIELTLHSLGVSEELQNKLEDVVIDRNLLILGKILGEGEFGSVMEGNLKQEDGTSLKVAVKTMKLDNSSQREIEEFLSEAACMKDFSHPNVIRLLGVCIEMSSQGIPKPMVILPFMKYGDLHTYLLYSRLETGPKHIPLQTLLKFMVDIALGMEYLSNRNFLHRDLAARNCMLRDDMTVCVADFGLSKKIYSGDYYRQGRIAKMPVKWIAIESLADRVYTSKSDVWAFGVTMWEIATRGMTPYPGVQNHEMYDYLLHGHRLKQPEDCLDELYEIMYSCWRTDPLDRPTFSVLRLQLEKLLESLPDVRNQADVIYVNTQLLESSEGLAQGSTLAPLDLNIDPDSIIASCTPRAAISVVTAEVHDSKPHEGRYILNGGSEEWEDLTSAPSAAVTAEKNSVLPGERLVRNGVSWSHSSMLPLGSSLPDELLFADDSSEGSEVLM
Procedure, shortened: as §1

[1] = read-out: % Enzyme Activity (relative to DMSO controls) Run 1
[2] = read-out: % Enzyme Activity (relative to DMSO controls) Run 2

T1 sequence (P45984 whole entry): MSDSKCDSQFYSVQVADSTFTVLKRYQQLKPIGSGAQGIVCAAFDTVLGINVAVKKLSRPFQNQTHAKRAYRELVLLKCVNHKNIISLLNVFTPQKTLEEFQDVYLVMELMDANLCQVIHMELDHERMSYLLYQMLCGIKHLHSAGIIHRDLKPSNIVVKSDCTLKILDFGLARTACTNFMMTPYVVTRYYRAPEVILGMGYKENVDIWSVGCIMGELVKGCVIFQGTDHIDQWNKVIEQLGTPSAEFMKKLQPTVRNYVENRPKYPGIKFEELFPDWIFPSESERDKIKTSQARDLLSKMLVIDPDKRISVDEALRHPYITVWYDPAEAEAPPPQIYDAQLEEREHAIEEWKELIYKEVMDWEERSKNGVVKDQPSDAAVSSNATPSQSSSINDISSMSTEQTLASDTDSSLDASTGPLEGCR

C=CC(=O)Nc1cccc(Nc2nc(Nc3ccc(OCCOC)c(F)c3)ncc2F)c1 [Compound 2]
inhibition at 3 µM (JNK2): 6.22%
remaining activity at 3 µM (JNK2; [1]): 92.5%
remaining activity at 3 µM (JNK2; [2]): 95.1%
inhibition at 3 µM (CDK6/cyclin D3): 0.16%
remaining activity at 3 µM (CDK6/cyclin D3; [1]): 99.5%
remaining activity at 3 µM (CDK6/cyclin D3; [2]): 100%
inhibition at 3 µM (Aurora A): 88.3%
remaining activity at 3 µM (Aurora A; [1]): 12.3%
remaining activity at 3 µM (Aurora A; [2]): 11%
inhibition at 3 µM (c-MER): 33.6%
remaining activity at 3 µM (c-MER; [1]): 66.5%
remaining activity at 3 µM (c-MER; [2]): 66.4%
